Earlier results in article PMC6192554, “In vitro toxicity and efficacy of verdinexor, an exportin 1 inhibitor, on opportunistic viruses affecting immunocompromised individuals” (PLoS ONE, 2018).

Test system: HIV
Set-up: method as in PMID 3025240
Conditions: PBMCs from healthy donors; read-out: EC50, anti-HIV activity; cited from earlier work

O=C(C=Cn1cnc(-c2cc(C(F)(F)F)cc(C(F)(F)F)c2)n1)NNc1ccccn1 (stereo in doubt) [verdinexor, (E)-3-[3-[3,5-bis(trifluoromethyl)phenyl]-1,2,4-triazol-1-yl]-N'-pyridin-2-ylprop-2-enehydrazide]
EC50: 0.116 ± 0.054 µM
